Measured values reported in PubChem BioAssay (NCI).
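How tested: cells in 96-well plates exposed to compound for 48 hours at five concentrations. GI50 = concentration required for 50% inhibition of growth. TGI marks complete inhibition of growth.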

Assays:
Assay in all cases: NCI-60 cell line screen, 48 h
OVCAR-4 ovarian = system: OVCAR-4 ovarian
HOP-92 NSCLC = system: HOP-92 NSCLC
SN12C renal = system: SN12C renal
EKVX NSCLC = system: EKVX NSCLC
UACC-257 melanoma = system: UACC-257 melanoma
NCI-H460 lung = system: NCI-H460 lung
SNB-75 CNS = system: SNB-75 CNS
OVCAR-8 ovarian = system: OVCAR-8 ovarian
PC-3 prostate = system: PC-3 prostate
NCI/ADR-RES ovarian = system: NCI/ADR-RES ovarian
T-47D breast = system: T-47D breast
LOX IMVI melanoma = system: LOX IMVI melanoma
SR leukemia = system: SR leukemia
SK-MEL-2 melanoma = system: SK-MEL-2 melanoma
ACHN renal = system: ACHN renal
HOP-62 NSCLC = system: HOP-62 NSCLC
M14 melanoma = system: M14 melanoma
COLO 205 colon = system: COLO 205 colon
SF-268 CNS = system: SF-268 CNS
UACC-62 melanoma = system: UACC-62 melanoma
NCI-H522 lung = system: NCI-H522 lung
SW-620 colon = system: SW-620 colon
MALME-3M melanoma = system: MALME-3M melanoma
HT29 colon = system: HT29 colon
MDA-MB-231 breast = system: MDA-MB-231 breast
A549 NSCLC = system: A549 NSCLC
HS 578T breast = system: HS 578T breast
IGROV1 ovarian = system: IGROV1 ovarian
SK-MEL-5 melanoma = system: SK-MEL-5 melanoma
SF-295 CNS = system: SF-295 CNS
OVCAR-3 ovarian = system: OVCAR-3 ovarian
HCT-15 colon = system: HCT-15 colon
SK-OV-3 ovarian = system: SK-OV-3 ovarian
UO-31 renal = system: UO-31 renal
A498 renal = system: A498 renal
CCRF-CEM leukemia = system: CCRF-CEM leukemia
HL-60(TB) leukemia = system: HL-60(TB) leukemia
DU-145 prostate = system: DU-145 prostate
KM12 colon = system: KM12 colon
786-0 renal = system: 786-0 renal
HCC-2998 colon = system: HCC-2998 colon
CAKI-1 renal = system: CAKI-1 renal
MCF7 breast = system: MCF7 breast
RPMI-8226 leukemia = system: RPMI-8226 leukemia
NCI-H23 lung = system: NCI-H23 lung
SK-MEL-28 melanoma = system: SK-MEL-28 melanoma
HCT-116 colon = system: HCT-116 colon
U251 CNS = system: U251 CNS
MDA-MB-435 = system: MDA-MB-435
SNB-19 CNS = system: SNB-19 CNS
MOLT-4 leukemia = system: MOLT-4 leukemia
TK-10 renal = system: TK-10 renal
SF-539 CNS = system: SF-539 CNS
NCI-H226 lung = system: NCI-H226 lung
K-562 leukemia = system: K-562 leukemia
RXF 393 renal = system: RXF 393 renal

c1cc2nnc1SCCSCCSCCSc1ccc(nn1)SCCSCCSCCS2
TGI (OVCAR-4 ovarian): > 100 µM | TGI (HOP-92 NSCLC): > 100 µM | TGI (SN12C renal): > 100 µM | TGI (EKVX NSCLC): > 100 µM | TGI (UACC-257 melanoma): > 100 µM | TGI (NCI-H460 lung): > 100 µM | TGI (SNB-75 CNS): > 100 µM | TGI (OVCAR-8 ovarian): > 100 µM | TGI (PC-3 prostate): > 100 µM | TGI (NCI/ADR-RES ovarian): > 100 µM | TGI (T-47D breast): > 100 µM | TGI (LOX IMVI melanoma): > 100 µM | TGI (SR leukemia): > 100 µM | TGI (SK-MEL-2 melanoma): > 100 µM | TGI (ACHN renal): > 100 µM | TGI (HOP-62 NSCLC): > 100 µM | TGI (M14 melanoma): > 100 µM | TGI (COLO 205 colon): > 100 µM | TGI (SF-268 CNS): > 100 µM | TGI (UACC-62 melanoma): > 100 µM | TGI (NCI-H522 lung): > 100 µM | TGI (SW-620 colon): > 100 µM | TGI (MALME-3M melanoma): > 100 µM | TGI (HT29 colon): > 100 µM | TGI (MDA-MB-231 breast): > 100 µM | TGI (A549 NSCLC): > 100 µM | TGI (HS 578T breast): > 100 µM | TGI (IGROV1 ovarian): > 100 µM | TGI (SK-MEL-5 melanoma): > 100 µM | TGI (SF-295 CNS): > 100 µM | TGI (OVCAR-3 ovarian): > 100 µM | TGI (HCT-15 colon): > 100 µM | TGI (SK-OV-3 ovarian): > 100 µM

O=C(CC(C(=O)c1ccsc1)c1ccsc1)c1ccsc1 (stereo not given)
TGI (OVCAR-4 ovarian): > 100 µM | TGI (SN12C renal): > 100 µM | TGI (UO-31 renal): > 100 µM | TGI (EKVX NSCLC): > 100 µM | TGI (A498 renal): > 100 µM | TGI (UACC-257 melanoma): > 100 µM | TGI (NCI-H460 lung): > 100 µM | TGI (SNB-75 CNS): > 100 µM | TGI (OVCAR-8 ovarian): > 100 µM | TGI (PC-3 prostate): > 100 µM | TGI (NCI/ADR-RES ovarian): > 100 µM | TGI (CCRF-CEM leukemia): > 100 µM | TGI (T-47D breast): > 100 µM | TGI (LOX IMVI melanoma): > 100 µM | TGI (HL-60(TB) leukemia): > 100 µM | TGI (SR leukemia): > 100 µM | TGI (DU-145 prostate): > 100 µM | TGI (SK-MEL-2 melanoma): > 100 µM | TGI (ACHN renal): > 100 µM | TGI (HOP-62 NSCLC): > 100 µM | TGI (KM12 colon): > 100 µM | TGI (M14 melanoma): > 100 µM | TGI (COLO 205 colon): > 100 µM | TGI (786-0 renal): > 100 µM | TGI (SF-268 CNS): > 100 µM | TGI (UACC-62 melanoma): > 100 µM | TGI (HCC-2998 colon): > 100 µM | TGI (CAKI-1 renal): > 100 µM | TGI (MCF7 breast): > 100 µM | TGI (RPMI-8226 leukemia): > 100 µM | TGI (SW-620 colon): > 100 µM | TGI (MALME-3M melanoma): > 100 µM | TGI (NCI-H23 lung): > 100 µM | TGI (HT29 colon): > 100 µM | TGI (MDA-MB-231 breast): > 100 µM | TGI (A549 NSCLC): > 100 µM | TGI (HS 578T breast): > 100 µM | TGI (SK-MEL-28 melanoma): > 100 µM | TGI (IGROV1 ovarian): > 100 µM | TGI (HCT-116 colon): > 100 µM | TGI (U251 CNS): > 100 µM | TGI (SK-MEL-5 melanoma): > 100 µM | TGI (MDA-MB-435): > 100 µM | TGI (SNB-19 CNS): > 100 µM | TGI (MOLT-4 leukemia): > 100 µM | TGI (SF-295 CNS): > 100 µM | TGI (TK-10 renal): > 100 µM | TGI (SF-539 CNS): > 100 µM | TGI (HCT-15 colon): > 100 µM | TGI (NCI-H226 lung): > 100 µM | TGI (K-562 leukemia): > 100 µM | TGI (SK-OV-3 ovarian): > 100 µM

COc1cc2c3c(n(CCCNCCCNCCN)c(=O)c2cc1OC)-c1cc2c(cc1C3=O)OCO2
GI50 (OVCAR-4 ovarian): 18.6 µM | TGI (OVCAR-4 ovarian): 55.6 µM | GI50 (HOP-92 NSCLC): 39.7 µM | TGI (HOP-92 NSCLC): > 100 µM | GI50 (SN12C renal): 19.8 µM | TGI (SN12C renal): 64.3 µM | GI50 (UO-31 renal): > 100 µM | TGI (UO-31 renal): > 100 µM | GI50 (EKVX NSCLC): > 100 µM | TGI (EKVX NSCLC): > 100 µM | GI50 (A498 renal): > 100 µM | TGI (A498 renal): > 100 µM | GI50 (UACC-257 melanoma): > 100 µM | TGI (UACC-257 melanoma): > 100 µM | GI50 (NCI-H460 lung): > 100 µM | TGI (NCI-H460 lung): > 100 µM | GI50 (SNB-75 CNS): 28.9 µM | TGI (SNB-75 CNS): 94.6 µM | GI50 (OVCAR-8 ovarian): 35.4 µM | TGI (OVCAR-8 ovarian): > 100 µM | GI50 (CCRF-CEM leukemia): 10.1 µM | TGI (CCRF-CEM leukemia): 32.2 µM | GI50 (T-47D breast): 46.8 µM | TGI (T-47D breast): > 100 µM | GI50 (LOX IMVI melanoma): 13.1 µM | TGI (LOX IMVI melanoma): 36.4 µM | GI50 (HL-60(TB) leukemia): 46.9 µM | TGI (HL-60(TB) leukemia): > 100 µM | GI50 (SR leukemia): 9.86 µM | TGI (SR leukemia): 43.9 µM | GI50 (DU-145 prostate): 51.9 µM | TGI (DU-145 prostate): > 100 µM | GI50 (SK-MEL-2 melanoma): > 100 µM | TGI (SK-MEL-2 melanoma): > 100 µM | GI50 (ACHN renal): 18.7 µM | TGI (ACHN renal): 57.1 µM | GI50 (KM12 colon): 85 µM | TGI (KM12 colon): > 100 µM | GI50 (M14 melanoma): 53.9 µM | TGI (M14 melanoma): > 100 µM | GI50 (COLO 205 colon): 23.8 µM | TGI (COLO 205 colon): > 100 µM | GI50 (786-0 renal): 26.2 µM | TGI (786-0 renal): 82 µM | GI50 (SF-268 CNS): > 100 µM | TGI (SF-268 CNS): > 100 µM | GI50 (UACC-62 melanoma): 37.1 µM | TGI (UACC-62 melanoma): > 100 µM | GI50 (CAKI-1 renal): 87.8 µM | TGI (CAKI-1 renal): > 100 µM | GI50 (MCF7 breast): 32.5 µM | TGI (MCF7 breast): > 100 µM | GI50 (NCI-H522 lung): 15.3 µM | TGI (NCI-H522 lung): 85.1 µM | GI50 (RPMI-8226 leukemia): 17.2 µM | TGI (RPMI-8226 leukemia): 49 µM | GI50 (SW-620 colon): 30.8 µM | TGI (SW-620 colon): > 100 µM | GI50 (NCI-H23 lung): 24.7 µM | TGI (NCI-H23 lung): 78.7 µM | GI50 (HT29 colon): 20.9 µM | TGI (HT29 colon): 95.2 µM | GI50 (MDA-MB-231 breast): 28.8 µM | TGI (MDA-MB-231 breast): > 100 µM | GI50 (A549 NSCLC): > 100 µM | TGI (A549 NSCLC): > 100 µM | GI50 (HS 578T breast): 48.7 µM | TGI (HS 578T breast): > 100 µM | GI50 (SK-MEL-28 melanoma): 48.5 µM | TGI (SK-MEL-28 melanoma): > 100 µM | GI50 (IGROV1 ovarian): 32.3 µM | TGI (IGROV1 ovarian): > 100 µM | GI50 (HCT-116 colon): 23 µM | TGI (HCT-116 colon): 57.9 µM | GI50 (U251 CNS): 18 µM | TGI (U251 CNS): 44.2 µM | GI50 (SK-MEL-5 melanoma): 35.7 µM | TGI (SK-MEL-5 melanoma): > 100 µM | GI50 (MDA-MB-435): 38 µM | TGI (MDA-MB-435): > 100 µM | GI50 (SNB-19 CNS): 53.9 µM | TGI (SNB-19 CNS): > 100 µM | GI50 (MOLT-4 leukemia): 10.9 µM | TGI (MOLT-4 leukemia): > 100 µM | GI50 (SF-295 CNS): > 100 µM | TGI (SF-295 CNS): > 100 µM | GI50 (TK-10 renal): 53.7 µM | TGI (TK-10 renal): > 100 µM | GI50 (SF-539 CNS): 37.9 µM | TGI (SF-539 CNS): > 100 µM | GI50 (OVCAR-3 ovarian): 19.5 µM | TGI (OVCAR-3 ovarian): 53.5 µM | GI50 (HCT-15 colon): > 100 µM | TGI (HCT-15 colon): > 100 µM | GI50 (NCI-H226 lung): 79.4 µM | TGI (NCI-H226 lung): > 100 µM | GI50 (RXF 393 renal): > 100 µM | TGI (RXF 393 renal): > 100 µM | GI50 (SK-OV-3 ovarian): > 100 µM | TGI (SK-OV-3 ovarian): > 100 µM
